{"source": "patent US7005298B1", "about": "“Micropropagation and production of phytopharmaceutical plants” (priority 1999, dated 2006)", "key": {"[1]": {"tested_on": "Echinacea purpurea petiole explants", "assay": "Regeneration of Echinacea purpurea petiole explants on induction medium (BAP, TDZ, IAA)", "format": "cell-based", "details": "for Number of regenerants/petiole: after 33 days of culture", "description": "The design of all experiments was a complete randomized block and treatments consisted of five replications. All the experiments were repeated at least twice and the data were analyzed using SAS Version 6.12 (SAS Inc., 1995). Significant differences between means were assessed by a Student-Neuman-Keulls means separation test at P≦0.05.\nGerminating seedlings were cultured onto MS medium (Murashige & Skoog, 1962) with B5 vitamins (Gamborg et al 1968), 30 g·L^−1 sucrose and 3 g·L^−1 gelrite in Magenta boxes. Petiole explants, 2 cm in length were excised from 4 week old sterile Echinacea purpurea plants and cultured onto induction medium comprising MS media supplemented with thidiazuron (TDZ) (0.5, 1, 5 and 10 μmol·L^−1) or BAP (1, 2.5, 5, 7.5, 10, 12.5 and 15 μmol·L^−1). TDZ was added to the media at concentrations of 0.5 and 1.0 μmmol·L^−1 in combination with indole acetic acid (IAA, an auxin) at concentrations of 5 and 10 μmol·L^−1. Explants cultured on media containing TDZ and IAA were subcultured onto MS basal media after 23 days while those cultured on media containing higher concentrations of TDZ were subcultured onto MS basal media after 4 and 8 days. All treatments consisted of 10 plates per treatment and 6 explants per plate. Treatments were incubated in a growth cabinet with a 16 hour photoperiod under cool white light at 40–60 μmol·m^−2·s^−1. Regeneration was quantified after 25 and 33 days for all petiole cultures and roots after 33 and 42 days of culture. The resulting regenerants were excised from petioles and subcultured onto MS basal media in test tubes for germination after 32 days of culture."}, "[2]": {"tested_on": "St. John's wort plantlets", "assay": "Lithium accumulation and growth of St. John's wort plantlets on lithium-supplemented liquid basal medium", "format": "in vivo, Hypericum perforatum", "description": "St. John's wort seedlings were obtained from sterilized seeds germinated in a controlled environment. St. John's wort seeds were sterilized by immersing in a 70% ethanol solution for 5 s, followed by an immersion in a 30% solution of 5.4% sodium hypochlorite (Lilo Products, Hamilton, Ontario) in water with one drop of Tween 20 per 500 mL for 20 min, and a three times rinse in sterile distilled water. Sterile seeds were germinated and maintained on water agar (8 g·L^−1) for 16 days in darkness in a growth cabinet at 24° C. Individual seedlings were cultured in Magenta boxes on a medium containing MS medium (Murashige and Skoog, 1962), B5 vitamins (Gamborg et al 1968), 30 g·L^−1 sucrose and 3 g·L^−1 gellan gum (Gelrite, Schweitzerhall Inc., South Plainfield, N.J., USA). Seedling cultures were incubated in a growth cabinet with a 16 hour photoperiod under cool white light at 40–60 μmol·m^−2·s^−1. After 30 days, seedlings were excised from the Magenta boxes and subcultured into 125 mL flasks containing 25 mL of a basal medium containing MS medium (Murashige and Skoog, 1962), B5 vitamins (Gamborg et al 1968) and 30 g·L^−1 sucrose. […]\nIn a second series of experiments, the lithium accumulation of regenerated St. John's wort shoots was determined. […]\nSamples were harvested from the cultures analysed for lithium with the same protocol as described above."}, "[3]": {"tested_on": "Echinacea plantlets", "assay": "Zinc uptake and growth of Echinacea plantlets on zinc-supplemented liquid basal medium", "format": "in vivo, Echinacea purpurea", "description": "Germinating seedlings were cultured onto MS medium (Murashige & Skoog, 1962) with B5 vitamins (Gamborg et al 1968), 30 g·L^−1 sucrose and 3 g·L^−1 gelrite in Magenta boxes and incubated in a controlled environment chamber for 30 days with a 16 hour photoperiod under cool white light at 40–60 μmol·m^−2·s^−1. Mature seedlings were subcultured into 125 mL flasks containing 25 mL of basal medium supplemented with zinc at 0, 50, 100, 150 or 200 mg·L^−1 and incubated in the same chamber for 30 days (liquid baslal medium, Table 1).\nIn experiments designed to determine the zinc uptake in micropropagated Echinacea plantlets, petiole explants, 2 cm in length were excised from the 4 week old sterile Echinacea plants and subcultured onto induction medium comprising MS media supplemented with thidiazuron (TDZ) (0.5, 1, 5 and 10 μmol·L^−1) or BAP (1, 2.5, 5, 7.5, 10, 12.5 and 15 μmol·L^−1) alone or in combination with indoleacetic acid (IAA) at concentrations of 5 and 10 μmol·L^−1. […] Regeneration was quantified after 25 and 33 days for all petiole cultures and roots after 33 and 42 days of culture. […]\nPlants were harvested on day 45 after treatments were initiated. […] Fresh weight of individual plantlets was determined prior to air drying at 90° C. for 48 hours. […] The zinc content of the samples was determined using an AA55 Varian Atomic Absorption Spectrophotometer or by ICP Analysis. […]"}, "[4]": {"tested_on": "livestock growth", "details": "animal feeds supplemented with 3000 ppm inorganic zinc; cited from earlier work"}, "[5]": {"tested_on": "uptake of serotonin, dopamine, noradrenaline, GABA and L-glutamate", "details": "animal cell cultures; cited from earlier work"}}, "note": "Marks after values point to notes of the source that are not given here."}
{"compound": "c1ccc(CNc2ncnc3[nH]cnc23)cc1", "note": "[BAP, benzylaminopurine]", "values": [{"measurement": "Number of regenerants/petiole", "setting": "[1]; BAP 1 μmol·L^−1", "result": "5.4^ab"}, {"measurement": "Number of regenerants/petiole", "setting": "[1]; BAP 2.5 μmol·L^−1", "result": "8.1^a"}, {"measurement": "Number of regenerants/petiole", "setting": "[1]; BAP 5 μmol·L^−1", "result": "6.6^ab"}, {"measurement": "Number of regenerants/petiole", "setting": "[1]; BAP 7.5 μmol·L^−1", "result": "5.2^ab"}, {"measurement": "Number of regenerants/petiole", "setting": "[1]; BAP 10 μmol·L^−1", "result": "3.9^b"}, {"measurement": "Number of regenerants/petiole", "setting": "[1]; BAP 12.5 μmol·L^−1", "result": "5.2^ab"}, {"measurement": "Number of regenerants/petiole", "setting": "[1]; BAP 15 μmol·L^−1", "result": "5.5^ab"}, {"measurement": "de novo shoot formation", "setting": "[1]; BAP as the sole growth regulating compound, all concentrations", "result": "induced de nova shoot formation at all concentrations"}, {"measurement": "callus formation and elongation of the petioles", "setting": "[1]; culture medium supplemented with BAP", "result": "induce callus formation and elongation of the petioles"}]}
{"compound": "[Li]", "note": "[lithium]", "values": [{"measurement": "appearance of plantlets", "setting": "[2]; all treatment levels (0–200 mg·L^−1 lithium)", "result": "appeared healthy"}, {"measurement": "growth rate", "setting": "[2]; lithium supplementation of the culture medium, all treatment levels", "result": "unaffected"}]}
{"compound": "[Zn]", "note": "[zinc]", "values": [{"measurement": "appearance of plants", "setting": "[3]; 50, 100 and 150 mg·L^−1 zinc treatment groups", "result": "appeared normal and healthy"}, {"measurement": "plantlet growth", "setting": "[3]; higher concentrations of zinc in the medium (above 150 mg·L^−1)", "result": "some inhibition of growth was observed"}, {"measurement": "muscle and protein accretion and rate of growth", "setting": "[4]", "result": "more rapid muscle and protein accretion and an overall acceleration in the rate of growth"}]}
{"compound": "hyperforin", "values": [{"measurement": "uptake of serotonin, dopamine, noradrenaline, GABA and L-glutamate", "setting": "[5]", "result": "inhibition of uptake"}]}
